Source: patent publication US20200172483A1, “HETEROCYCLIC SMALL MOLECULE MODULATORS OF HUMAN STING” (Curadev Pharma Limited, priority 2017, published 2020)
pEC50: −log10 of the molar value. Like-named read-outs stand apart in the source and are kept apart here.

What was measured:
[1] = molecular target: T1, hSTING (HAQ) (Homo sapiens, UniProt Q86WV6, G230A/H232R/R293Q/R71H); test: Luciferase reporter assay in HEK293T-hSTING-Luciferase cells (HAQ polymorph); format: cell-based; conditions: EC50 range
T1 construct: host or cells: HEK293T
T1 sequence (Q86WV6 whole entry R71H/G230A/H232R/R293Q): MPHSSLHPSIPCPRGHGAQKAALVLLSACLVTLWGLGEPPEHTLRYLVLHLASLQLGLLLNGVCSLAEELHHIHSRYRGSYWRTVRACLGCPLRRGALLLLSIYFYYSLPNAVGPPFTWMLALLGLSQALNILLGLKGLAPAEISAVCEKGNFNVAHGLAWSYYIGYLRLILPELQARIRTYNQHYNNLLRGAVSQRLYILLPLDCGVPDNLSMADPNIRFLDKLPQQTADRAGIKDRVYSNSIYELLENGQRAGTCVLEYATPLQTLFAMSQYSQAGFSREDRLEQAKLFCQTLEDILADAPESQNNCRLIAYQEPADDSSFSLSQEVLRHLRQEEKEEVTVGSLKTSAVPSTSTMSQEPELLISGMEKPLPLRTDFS
Description: (§1) • a) Stable STING expressing cells—Stable HEK293T STING-expressing cell lines were generated using plasmids purchased from Invivogen, CA, USA, that contain STING cDNA cloned into the pUNO-1 vector under hEF1-HTLV promoter and containing the Blasticidin selection cassette. The plasmids hSTING (R232), hSTING (H232), hSTING (HAQ) were directly procured from Invivogen while hSTING (AQ) and hSTING (Q) were derived from hSTING (HAQ) and hSTING (R232) plasmids respectively by using a PCR based site directed mutagenesis method. These vectors were individually transfected into HEK293T cells using Lipofectamine (Invitrogen) and transfected cells were selected under Blasticidin selection. These transfected cells were further subjected to clonal selection using the limiting dilution method to obtain clonally pure populations of HEK cells transfected with each of the above mentioned human STING variants. Only those clones were selected in which ligand independent activation of STING was minimal. • b) Stable Luciferase reporter gene expressing cells—Stable HEK293T Luciferase reporter gene expressing cell lines were generated using pCDNA4 plasmids under an IRF-inducible promoter. This promoter is comprised of five tandem interferon-stimulated response elements (ISRE) fused to an ISG54 minimal promoter. This vector was transfected into HEK293T cells using Lipofectamine (Invitrogen) and transfected cells were selected under Zeocin selection. These transfected cells were further subjected to clonal selection using the limiting dilution method to obtain clonally pure populations of HEK cells transfected the Luciferase reporter construct. Only those clones were selected in which ligand independent induction of luciferase was minimal.
(§2) 5×10^5 clonally selected HEK293T-hSTING-Luciferase cells were seeded in 384-well plates in growth medium and stimulated with novel compounds. After 20 hr of stimulation supernatant were removed and secretary reporter gene activity were measured using the Quanti-Luc detection system (Invivogen) on a Spectramax i3X luminometer.
(§3) The 5 major polymorphisms of human STING are shown in FIG. 1, with their prevalence in human populations indicated.

[2] = molecular target: T2, hSTING (H232) (Homo sapiens, UniProt Q86WV6); test: Luciferase reporter assay in HEK293T-hSTING-Luciferase cells (H232/REF polymorph); format: cell-based; conditions: EC50 range
T2 construct: host or cells: HEK293T
T2 sequence (Q86WV6 whole entry): as the sequence (Q86WV6 whole entry R71H/G230A/H232R/R293Q) above, with H71R, A230G, R232H, Q293R counted along it
Description: as §1, §2, §3

[3] = molecular target: T3, WT/R232 STING protein (Homo sapiens, UniProt Q86WV6, H232R); test: Luciferase reporter assay in HEK293T-hSTING-Luciferase cells (R232); format: cell-based; conditions: 20 hr stimulation, EC50 range
T3 construct: host or cells: HEK293T
T3 sequence (Q86WV6 whole entry H232R): as the sequence (Q86WV6 whole entry R71H/G230A/H232R/R293Q) above, with H71R, A230G, Q293R counted along it
How it was run: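 Readout is fold-induction over baseline of secreted luciferase, measured by luminescence after 20 hr compound stimulation. Cells: clonally selected HEK293T stably carrying hSTING (R232) and a luciferase reporter under five tandem ISREs fused to an ISG54 minimal promoter.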

[4] = test system: IRF pathway; test: Reporter gene expression assay for IRF axis in THP1-Dual cells (secreted Lucia luciferase); format: cell-based, human; conditions: 20 hr stimulation, QUANTI-Luc, EC50 range, read-out: THP-IRF activity
Protocol: (§4) THP1-Dual™ cells (Invivogen) were derived from the human THP-1 monocyte cell line by stable integration of two inducible reporter constructs. As a result, THP1-Dual™ cells allow the simultaneous study of the NF-κB pathway, by monitoring the activity of secreted SEAP, and the IRF pathway, by assessing the activity of a secreted luciferase (Lucia). […] THP1-Dual™ cells were seeded in 384-well plates in growth medium and stimulated with novel compounds. After 20 hr of stimulation supernatant were removed and reporter proteins were readily measured in the cell culture supernatant using QUANTI-Blue™ (Invivogen), a SEAP detection reagent, and QUANTI-Luc™ (Invivogen), a luciferase detection reagent on a Spectramax i3X luminometer. EC50 value ranges for exemplary compounds tested in the above assay are given.

[5] = test system: NF-κB pathway; test: Reporter gene expression assay for NFκB axis in THP1-Dual cells (secreted SEAP); format: cell-based, human; conditions: 20 hr stimulation, QUANTI-Blue SEAP, EC50 range, read-out: THP-NFKB activity
Protocol: as §4

| pEC50 [1] | pEC50 [2] | pEC50 [3] | pEC50 [4] | pEC50 [5] | pEC50 ([4]; Homo sapiens, THP1-Dual, 20 h) | pEC50 ([5]; Homo sapiens, THP1-Dual, 20 h) | SMILES |
| --- | --- | --- | --- | --- | --- | --- | --- |
| < 5.00 | < 5.00 | ≥ 6.00 | < 5.00 | < 5.00 |  |  | CC1(Cl)C(=O)N(Cc2cc(F)cc(F)c2)c2cc(C(=O)NCc3c(F)cc(F)cc3F)ccc21 (centres unmarked) [Example 147, 3-chloro-1-(3,5-difluorobenzyl)-3-methyl-2-oxo-N-(2,4,6-trifluorobenzyl)indoline-6-carboxamide] |
| 5.00 to 6.00 | 5.00 to 6.00 | 5.00 to 6.00 |  |  | < 5.00 | < 5.00 | Cc1cc(CN2C(=O)C(C)(C)c3ccc(C(=O)NCc4c(F)cc(F)cc4F)cc32)no1 [Example 70, 3,3-dimethyl-1-((5-methylisoxazol-3-yl)methyl)-2-oxo-N-(2,4,6-trifluorobenzyl)indoline-6-carboxamide] |
| 5.00 to 6.00 | 5.00 to 6.00 | 5.00 to 6.00 |  |  | < 5.00 | < 5.00 | CC1(C)C(=O)N(Cc2cc(F)cc(F)c2)c2cc(C(=O)NCc3ccc(N=[N+]=[N-])cc3)ccc21 [Example 48, N-(4-azidobenzyl)-1-(3,5-difluorobenzyl)-3,3-dimethyl-2-oxoindoline-6-carboxamide] |
| 5.00 to 6.00 | 5.00 to 6.00 | ≥ 6.00 |  |  | < 5.00 | 5.00 to 6.00 | CC1(C)C(=O)N(Cc2cc(F)cc(F)c2)c2cc(C(=O)NCc3cc4ccccc4o3)ccc21 [Example 23, N-(benzofuran-2-ylmethyl)-1-(3,5-difluorobenzyl)-3,3-dimethyl-2-oxoindoline-6-carboxamide] |

More lines, now with the values behind:

| SMILES | pEC50 [1] | pEC50 [2] | pEC50 [3] | pEC50 [4] | pEC50 [5] | pEC50 ([4]; Homo sapiens, THP1-Dual, 20 h) | pEC50 ([5]; Homo sapiens, THP1-Dual, 20 h) |
| --- | --- | --- | --- | --- | --- | --- | --- |
| CC1(C#N)C(=O)N(Cc2c(F)cccc2Cl)c2cc(C(=O)NCc3c(F)cc(F)cc3F)ccc21 (centres unmarked) [Example 165, 1-(2-chloro-6-fluorobenzyl)-3-cyano-3-methyl-2-oxo-N-(2,4,6-trifluorobenzyl)indoline-6-carboxamide] | ≥ 6.00 | ≥ 6.00 | ≥ 6.00 | < 5.00 | 5.00 to 6.00 |  |  |
| CC1(C)C(=O)N(Cc2ccccc2)c2cc(C(=O)NCc3c(F)cc(F)cc3F)ccc21 [Example 11, 1-benzyl-3,3-dimethyl-2-oxo-N-(2,4,6-trifluorobenzyl)indoline-6-carboxamide] | 5.00 to 6.00 | 5.00 to 6.00 | ≥ 6.00 |  |  | < 5.00 | 5.00 to 6.00 |
| CC1(C)C(=O)N(Cc2cccc(F)c2)c2cc(C(=O)NCc3c(F)cc(F)cc3F)ccc21 [Example 14, 1-(3-fluorobenzyl)-3,3-dimethyl-2-oxo-N-(2,4,6-trifluorobenzyl)indoline-6-carboxamide] | 5.00 to 6.00 | 5.00 to 6.00 | ≥ 6.00 |  |  | 5.00 to 6.00 | 5.00 to 6.00 |
| Cc1cc(CN2C(=O)C(C)(C)c3ccc(C(=O)NCc4cc5ccccc5o4)cc32)n(C)n1 [Example 107, N-(benzofuran-2-ylmethyl)-1-((1,3-dimethyl-1H-pyrazol-5-yl)methyl)-3,3-dimethyl-2-oxoindoline-6-carboxamide] | 5.00 to 6.00 | 5.00 to 6.00 | ≥ 6.00 |  |  | 5.00 to 6.00 | 5.00 to 6.00 |
| COc1cccc(F)c1CN1C(=O)C(C)(C)c2ccc(C(=O)NCc3c(F)cc(F)cc3F)cc21 [Example 102, 1-(2-fluoro-6-methoxybenzyl)-3,3-dimethyl-2-oxo-N-(2,4,6-trifluorobenzyl)indoline-6-carboxamide] | ≥ 6.00 | ≥ 6.00 | ≥ 6.00 |  |  | ≥ 6.00 | ≥ 6.00 |
| CC1(C)C(=O)N(Cc2cccc(N=[N+]=[N-])c2)c2cc(C(=O)NCc3c(F)cc(F)cc3F)ccc21 [Example 57, 1-(3-azidobenzyl)-3,3-dimethyl-2-oxo-N-(2,4,6-triflurobenzyl)indoline-6-carboxamide] | 5.00 to 6.00 | 5.00 to 6.00 | 5.00 to 6.00 |  |  | < 5.00 | < 5.00 |
